Activity calls are given as the source filed them. The rule behind the calls is not given here.
Experiments:
Homo sapiens = species: Homo sapiens; test: Inhibition of AMPK (unknown origin) at 1 uM relative to control
[1] = target: T1, Tyrosine-protein kinase Fyn (Homo sapiens, UniProt P06241); test: Inhibition of FYN (unknown origin) by trFRET binding assay
[2] = target: Dual specificity protein kinase CLK3 (Homo sapiens) (UniProt P49761); settings: dose 500.0 nM
Description: Inhibition of CLK3 (unknown origin) at 500 nM relative to control

[3] = target: Tyrosine-protein kinase CSK (Homo sapiens) (UniProt P41240); settings: dose 500.0 nM
Sequence of Tyrosine-protein kinase CSK (Homo sapiens) (P41240 2-450 limits assumed): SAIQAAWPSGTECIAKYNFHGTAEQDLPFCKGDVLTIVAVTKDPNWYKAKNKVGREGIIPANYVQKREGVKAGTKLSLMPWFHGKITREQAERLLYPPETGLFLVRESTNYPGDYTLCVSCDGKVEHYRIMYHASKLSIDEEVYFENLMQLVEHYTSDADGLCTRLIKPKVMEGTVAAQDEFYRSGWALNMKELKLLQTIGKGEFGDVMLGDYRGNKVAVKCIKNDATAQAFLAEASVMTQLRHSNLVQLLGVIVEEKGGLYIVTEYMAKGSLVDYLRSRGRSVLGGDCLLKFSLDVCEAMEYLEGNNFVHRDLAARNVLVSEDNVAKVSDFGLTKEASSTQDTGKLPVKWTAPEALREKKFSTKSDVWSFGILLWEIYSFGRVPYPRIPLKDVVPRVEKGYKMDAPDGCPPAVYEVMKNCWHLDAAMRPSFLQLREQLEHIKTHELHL
Description: Inhibition of CSK (unknown origin) at 500 nM relative to control

[4] = target: Receptor tyrosine-protein kinase erbB-4 (Homo sapiens) (UniProt Q15303); settings: dose 500.0 nM
Description: Inhibition of ERBB4 (unknown origin) at 500 nM relative to control

[5] = system: Fibroblast growth factor receptor 3 (Homo sapiens), P22607 [G697C]; settings: dose 500.0 nM
[6] = target: T1, Tyrosine-protein kinase Fyn; settings: dose 500.0 nM
Description: Inhibition of wild-type FYN (unknown origin) at 500 nM relative to control

[7] = target: G protein-coupled receptor kinase 6 (Homo sapiens) (UniProt P43250); settings: dose 500.0 nM
Description: Inhibition of GRK6 (unknown origin) at 500 nM relative to control

[8] = target: Serine/threonine-protein kinase haspin (Homo sapiens) (UniProt Q8TF76); settings: dose 500.0 nM
Description: Inhibition of GSG2 (unknown origin) at 500 nM relative to control

[9] = target: Homeodomain-interacting protein kinase 1 (Homo sapiens) (UniProt Q86Z02); settings: dose 500.0 nM
Description: Inhibition of HIPK1 (unknown origin) at 500 nM relative to control

[10] = target: T2, Tyrosine-protein kinase JAK3 (Homo sapiens) (UniProt P52333); settings: dose 500.0 nM
T2 sequence (whole entry): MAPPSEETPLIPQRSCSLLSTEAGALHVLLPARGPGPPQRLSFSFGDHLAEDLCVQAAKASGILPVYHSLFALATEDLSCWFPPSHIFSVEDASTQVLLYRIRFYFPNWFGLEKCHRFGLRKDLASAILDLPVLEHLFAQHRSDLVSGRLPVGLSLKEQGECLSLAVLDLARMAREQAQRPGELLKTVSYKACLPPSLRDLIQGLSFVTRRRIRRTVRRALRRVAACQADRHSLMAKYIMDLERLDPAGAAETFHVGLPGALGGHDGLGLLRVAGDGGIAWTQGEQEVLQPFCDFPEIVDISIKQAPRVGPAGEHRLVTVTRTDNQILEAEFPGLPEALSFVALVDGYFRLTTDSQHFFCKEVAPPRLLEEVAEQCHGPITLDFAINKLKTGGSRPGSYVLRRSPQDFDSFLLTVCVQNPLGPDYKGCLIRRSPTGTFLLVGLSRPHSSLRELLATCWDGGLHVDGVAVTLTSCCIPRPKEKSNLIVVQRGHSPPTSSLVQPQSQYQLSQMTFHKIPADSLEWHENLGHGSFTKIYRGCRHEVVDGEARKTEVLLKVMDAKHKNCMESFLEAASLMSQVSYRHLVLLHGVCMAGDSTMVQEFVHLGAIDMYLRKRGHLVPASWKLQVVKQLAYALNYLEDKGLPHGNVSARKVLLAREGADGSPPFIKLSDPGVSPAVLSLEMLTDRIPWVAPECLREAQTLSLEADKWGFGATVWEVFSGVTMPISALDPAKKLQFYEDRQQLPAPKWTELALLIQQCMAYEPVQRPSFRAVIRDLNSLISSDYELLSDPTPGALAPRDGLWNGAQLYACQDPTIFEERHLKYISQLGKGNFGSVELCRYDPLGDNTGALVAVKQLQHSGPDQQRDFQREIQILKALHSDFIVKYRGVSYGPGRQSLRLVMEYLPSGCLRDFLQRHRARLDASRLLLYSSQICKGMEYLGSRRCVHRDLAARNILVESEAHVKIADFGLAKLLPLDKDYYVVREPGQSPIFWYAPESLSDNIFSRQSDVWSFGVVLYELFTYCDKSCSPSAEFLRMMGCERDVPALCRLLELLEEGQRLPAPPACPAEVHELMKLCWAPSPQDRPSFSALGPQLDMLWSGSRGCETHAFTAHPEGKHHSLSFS
Description: Inhibition of JAK3 (unknown origin) at 500 nM relative to control

[11] = system: Mast/stem cell growth factor receptor Kit (Homo sapiens), P10721 [V559D,V654A]; settings: dose 500.0 nM
[12] = target: MAP kinase-activated protein kinase 2 (Homo sapiens) (UniProt P49137); settings: dose 500.0 nM
Sequence of MAP kinase-activated protein kinase 2 (Homo sapiens) (P49137 whole entry, looked up): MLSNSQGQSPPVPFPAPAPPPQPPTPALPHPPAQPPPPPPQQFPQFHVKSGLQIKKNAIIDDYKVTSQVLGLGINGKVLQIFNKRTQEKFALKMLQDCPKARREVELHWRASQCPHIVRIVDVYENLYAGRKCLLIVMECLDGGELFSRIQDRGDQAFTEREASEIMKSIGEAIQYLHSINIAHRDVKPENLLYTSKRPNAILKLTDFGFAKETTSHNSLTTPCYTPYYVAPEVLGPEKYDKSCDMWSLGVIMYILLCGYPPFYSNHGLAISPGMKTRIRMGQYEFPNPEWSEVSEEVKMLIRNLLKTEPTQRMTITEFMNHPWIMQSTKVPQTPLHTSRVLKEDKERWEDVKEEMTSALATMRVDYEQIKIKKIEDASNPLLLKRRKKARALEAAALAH
Description: Inhibition of MAPKAPK2 (unknown origin) at 500 nM relative to control

[13] = target: MAP kinase-activated protein kinase 3 (Homo sapiens) (UniProt Q16644); settings: dose 500.0 nM
Description: Inhibition of MAPKAPK3 (unknown origin) at 500 nM relative to control

[14] = target: Hepatocyte growth factor-like protein (Homo sapiens) (UniProt P26927); settings: dose 500.0 nM
Description: Inhibition of MST1 (unknown origin) at 500 nM relative to control

[15] = target: Serine/threonine-protein kinase Nek6 (Homo sapiens) (UniProt Q9HC98); settings: dose 500.0 nM
Description: Inhibition of NEK6 (unknown origin) at 500 nM relative to control

[16] = target: Mitogen-activated protein kinase kinase kinase kinase 4 (Homo sapiens) (UniProt O95819); settings: dose 500.0 nM
Description: Inhibition of NIK (unknown origin) at 500 nM relative to control

[17] = system: NPM/ALK (Nucleophosmin/ALK tyrosine kinase receptor) (Homo sapiens), Q9UM73+P06748 [F1174L]; settings: dose 500.0 nM
Description: Inhibition of NPM1ALK F1174L mutant (unknown origin) at 500 nM relative to control

[18] = target: Mitogen-activated protein kinase 14 (Homo sapiens) (UniProt Q16539); settings: dose 500.0 nM
Sequence of Mitogen-activated protein kinase 14 (Homo sapiens) (Q16539 whole entry): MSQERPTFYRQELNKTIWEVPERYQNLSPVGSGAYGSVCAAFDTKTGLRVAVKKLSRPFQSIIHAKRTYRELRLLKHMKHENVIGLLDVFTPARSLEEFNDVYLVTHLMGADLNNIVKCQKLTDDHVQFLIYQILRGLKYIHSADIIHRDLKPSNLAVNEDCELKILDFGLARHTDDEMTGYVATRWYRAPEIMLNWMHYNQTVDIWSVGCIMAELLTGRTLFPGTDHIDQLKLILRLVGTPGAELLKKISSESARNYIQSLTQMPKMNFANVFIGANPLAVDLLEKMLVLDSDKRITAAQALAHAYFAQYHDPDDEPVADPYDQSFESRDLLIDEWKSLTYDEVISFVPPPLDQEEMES
Description: Inhibition of p38-alpha (unknown origin) at 500 nM relative to control

[19] = target: Serine/threonine-protein kinase D1 (Homo sapiens) (UniProt Q15139); settings: dose 500.0 nM
Description: Inhibition of PKC-mu (unknown origin) at 500 nM relative to control

[20] = target: Macrophage-stimulating protein receptor (Homo sapiens) (UniProt Q04912); settings: dose 500.0 nM
Description: Inhibition of RON (unknown origin) at 500 nM relative to control

[21] = target: STE20/SPS1-related proline-alanine-rich protein kinase (Homo sapiens) (UniProt Q9UEW8); settings: dose 500.0 nM
Description: Inhibition of STK39 (unknown origin) at 500 nM relative to control

[22] = target: Phosphatidylinositol 3-kinase catalytic subunit type 3 (Homo sapiens) (UniProt Q8NEB9); settings: dose 500.0 nM
Sequence of Phosphatidylinositol 3-kinase catalytic subunit type 3 (Homo sapiens) (Q8NEB9 whole entry, canonical isoform): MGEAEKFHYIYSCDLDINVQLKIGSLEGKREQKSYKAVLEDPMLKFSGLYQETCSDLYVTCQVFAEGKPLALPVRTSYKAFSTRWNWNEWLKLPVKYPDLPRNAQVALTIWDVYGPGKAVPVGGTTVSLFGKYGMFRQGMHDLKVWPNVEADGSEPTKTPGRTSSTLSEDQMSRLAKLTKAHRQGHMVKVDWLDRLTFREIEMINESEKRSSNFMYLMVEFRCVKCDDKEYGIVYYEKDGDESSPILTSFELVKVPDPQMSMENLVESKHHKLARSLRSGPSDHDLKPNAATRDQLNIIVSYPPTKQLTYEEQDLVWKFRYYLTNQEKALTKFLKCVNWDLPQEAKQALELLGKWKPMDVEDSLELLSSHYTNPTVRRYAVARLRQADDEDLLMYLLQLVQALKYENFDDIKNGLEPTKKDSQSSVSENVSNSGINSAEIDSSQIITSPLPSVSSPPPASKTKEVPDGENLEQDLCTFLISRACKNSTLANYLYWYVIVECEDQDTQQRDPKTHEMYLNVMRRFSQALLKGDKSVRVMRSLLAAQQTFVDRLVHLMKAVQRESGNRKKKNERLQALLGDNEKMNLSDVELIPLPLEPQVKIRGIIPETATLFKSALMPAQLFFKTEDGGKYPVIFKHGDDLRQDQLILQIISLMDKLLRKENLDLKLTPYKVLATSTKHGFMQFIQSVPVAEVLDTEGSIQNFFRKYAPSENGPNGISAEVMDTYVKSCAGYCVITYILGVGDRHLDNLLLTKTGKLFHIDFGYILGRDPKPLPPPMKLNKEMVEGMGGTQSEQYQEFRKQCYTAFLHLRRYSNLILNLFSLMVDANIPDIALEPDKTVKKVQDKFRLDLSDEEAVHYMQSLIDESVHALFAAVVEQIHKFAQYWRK
Description: Inhibition of PIK3C3 (unknown origin) at 500 nM relative to control

[23] = target: Phosphatidylinositol 4,5-bisphosphate 3-kinase catalytic subunit gamma isoform (Homo sapiens) (UniProt P48736); settings: dose 500.0 nM
Sequence of Phosphatidylinositol 4,5-bisphosphate 3-kinase catalytic subunit gamma isoform (Homo sapiens) (P48736 whole entry, looked up, canonical isoform): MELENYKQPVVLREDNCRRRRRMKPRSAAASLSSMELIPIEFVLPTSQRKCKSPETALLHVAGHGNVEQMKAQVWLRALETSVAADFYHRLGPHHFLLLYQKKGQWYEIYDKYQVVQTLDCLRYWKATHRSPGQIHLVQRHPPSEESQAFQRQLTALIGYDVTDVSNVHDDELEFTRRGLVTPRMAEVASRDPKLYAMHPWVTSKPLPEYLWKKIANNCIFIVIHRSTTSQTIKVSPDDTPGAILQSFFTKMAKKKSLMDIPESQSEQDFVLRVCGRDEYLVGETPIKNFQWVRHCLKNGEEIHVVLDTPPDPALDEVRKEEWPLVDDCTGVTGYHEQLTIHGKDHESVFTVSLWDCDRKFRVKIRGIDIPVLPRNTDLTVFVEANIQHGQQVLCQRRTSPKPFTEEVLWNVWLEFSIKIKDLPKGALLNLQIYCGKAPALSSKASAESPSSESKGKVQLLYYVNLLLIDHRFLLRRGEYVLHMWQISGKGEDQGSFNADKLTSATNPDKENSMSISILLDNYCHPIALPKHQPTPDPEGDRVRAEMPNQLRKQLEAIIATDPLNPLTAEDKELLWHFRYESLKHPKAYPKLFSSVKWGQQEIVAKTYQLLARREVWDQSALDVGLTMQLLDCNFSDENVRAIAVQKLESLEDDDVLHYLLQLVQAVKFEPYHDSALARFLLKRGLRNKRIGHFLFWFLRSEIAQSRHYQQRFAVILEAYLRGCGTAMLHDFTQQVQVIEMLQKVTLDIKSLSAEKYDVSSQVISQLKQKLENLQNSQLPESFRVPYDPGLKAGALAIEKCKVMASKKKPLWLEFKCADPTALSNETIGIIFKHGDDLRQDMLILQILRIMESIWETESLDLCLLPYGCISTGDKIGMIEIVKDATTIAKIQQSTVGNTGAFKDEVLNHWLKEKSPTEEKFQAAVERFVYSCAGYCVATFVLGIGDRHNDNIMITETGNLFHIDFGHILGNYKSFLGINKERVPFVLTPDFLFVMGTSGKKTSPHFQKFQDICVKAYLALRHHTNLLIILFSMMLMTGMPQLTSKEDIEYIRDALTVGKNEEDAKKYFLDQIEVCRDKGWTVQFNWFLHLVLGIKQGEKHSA
Description: Inhibition of PIK3CG (unknown origin) at 500 nM relative to control

[24] = target: T2, Tyrosine-protein kinase JAK3 (Homo sapiens); settings: HeLa, dose 100.0 nM, time 2.0 hrs
[25] = target: T2, Tyrosine-protein kinase JAK3 (Homo sapiens); settings: HeLa, dose 100.0 nM, time 1.0 hrs
CD4+ve Th [26] = settings: Homo sapiens, dose 50-100 nM, time 1.5 hrs
CD4+ve Th [27] = settings: Homo sapiens, dose <= 1000.0 nM, time 1.5 hrs
CD4+ve Th [28] = settings: Homo sapiens, dose <= 1000.0 nM, time 1.5 hrs; remark: listed apart in the source
cells [29] = settings: Homo sapiens, CD4+ve Th, 1.5 h, read-out: INH
cells [30] = settings: Homo sapiens, CD4+ve Th, 1.5 h, read-out: INH; remark: listed apart in the source
[31] = target: T3, Tyrosine-protein kinase JAK3 (Homo sapiens, UniProt P52333)
T3 sequence (P52333 whole entry): T2 sequence (whole entry)
Description: Inhibition of JAK3 (unknown origin) in presence of ATP by radiometric assay

[32] = target: Tyrosine-protein kinase Blk (Homo sapiens) (UniProt P51451); settings: dose 100.0 nM
Description: Inhibition of BLK (unknown origin) at 100 nM relative to control

[33] = system: Epidermal growth factor receptor (Homo sapiens), P00533 [UNDEFINED MUTATION]; settings: dose 100.0 nM
Sequence of Epidermal growth factor receptor (Homo sapiens), P00533 [UNDEFINED MUTATION] (P00533 whole entry, looked up, change not shown): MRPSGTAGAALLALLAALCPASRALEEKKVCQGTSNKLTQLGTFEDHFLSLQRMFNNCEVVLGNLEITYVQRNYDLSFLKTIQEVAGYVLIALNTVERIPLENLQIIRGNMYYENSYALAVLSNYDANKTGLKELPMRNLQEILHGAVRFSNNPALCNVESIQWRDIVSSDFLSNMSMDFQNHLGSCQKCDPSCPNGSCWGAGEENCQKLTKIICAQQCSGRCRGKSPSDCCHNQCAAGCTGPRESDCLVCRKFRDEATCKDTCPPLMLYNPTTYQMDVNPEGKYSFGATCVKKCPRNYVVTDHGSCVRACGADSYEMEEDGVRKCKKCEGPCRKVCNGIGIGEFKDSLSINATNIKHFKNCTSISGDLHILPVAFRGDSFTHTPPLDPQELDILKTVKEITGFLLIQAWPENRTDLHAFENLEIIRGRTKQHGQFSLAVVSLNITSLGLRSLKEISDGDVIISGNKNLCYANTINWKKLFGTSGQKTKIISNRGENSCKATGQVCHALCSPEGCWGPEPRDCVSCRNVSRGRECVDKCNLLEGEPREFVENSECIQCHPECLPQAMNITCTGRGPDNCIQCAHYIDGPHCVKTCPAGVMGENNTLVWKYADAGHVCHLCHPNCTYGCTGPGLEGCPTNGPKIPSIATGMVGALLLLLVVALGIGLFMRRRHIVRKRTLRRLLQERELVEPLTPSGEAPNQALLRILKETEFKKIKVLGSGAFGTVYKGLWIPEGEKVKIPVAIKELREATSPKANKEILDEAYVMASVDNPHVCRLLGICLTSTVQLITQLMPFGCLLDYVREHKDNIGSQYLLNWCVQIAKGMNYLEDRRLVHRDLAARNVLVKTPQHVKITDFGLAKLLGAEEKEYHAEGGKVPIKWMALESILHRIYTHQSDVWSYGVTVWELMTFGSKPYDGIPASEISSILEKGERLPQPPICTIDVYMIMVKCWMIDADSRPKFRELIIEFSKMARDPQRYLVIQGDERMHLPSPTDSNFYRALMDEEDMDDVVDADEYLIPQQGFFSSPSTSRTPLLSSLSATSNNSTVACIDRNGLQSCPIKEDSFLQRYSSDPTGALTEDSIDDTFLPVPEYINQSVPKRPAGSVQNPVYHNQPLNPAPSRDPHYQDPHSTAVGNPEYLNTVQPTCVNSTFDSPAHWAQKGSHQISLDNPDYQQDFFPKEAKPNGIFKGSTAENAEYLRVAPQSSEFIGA
Description: Inhibition of EGFR d747-752/P753S double mutant (unknown origin) at 100 nM relative to control

[34] = target: Tyrosine-protein kinase ITK/TSK (Homo sapiens) (UniProt Q08881); settings: dose 100.0 nM
Description: Inhibition of ITK (unknown origin) at 100 nM relative to control

[35] = target: Tyrosine-protein kinase JAK2 (Homo sapiens) (UniProt O60674); settings: dose 100.0 nM
Description: Inhibition of JAK2 (unknown origin) at 100 nM relative to control

[36] = target: T2, Tyrosine-protein kinase JAK3 (Homo sapiens); settings: dose 100.0 nM
Description: Inhibition of JAK3 (unknown origin) at 100 nM relative to control

[37] = system: Leucine-rich repeat serine/threonine-protein kinase 2 (Homo sapiens), Q5S007 [G2019S]; settings: dose 100.0 nM
[38] = system: Leucine-rich repeat serine/threonine-protein kinase 2 (Homo sapiens), Q5S007 [I2020T]; settings: dose 100.0 nM
[39] = system: Leucine-rich repeat serine/threonine-protein kinase 2 (Homo sapiens), Q5S007 [R1441C]; settings: dose 100.0 nM
[40] = target: Leucine-rich repeat serine/threonine-protein kinase 2 (Homo sapiens) (UniProt Q5S007); settings: dose 100.0 nM
Description: Inhibition of wild-type LRRK2 (unknown origin) at 100 nM relative to control

[41] = target: Mitogen-activated protein kinase kinase kinase 11 (Homo sapiens) (UniProt Q16584); settings: dose 100.0 nM
Description: Inhibition of MAP3K11 (unknown origin) at 100 nM relative to control

[42] = target: Mitogen-activated protein kinase kinase kinase kinase 2 (Homo sapiens) (UniProt Q12851); settings: dose 100.0 nM
Description: Inhibition of MAP4K2 (unknown origin) at 100 nM relative to control

[43] = target: MAP kinase-activated protein kinase 2 (Homo sapiens) (UniProt P49137); settings: dose 100.0 nM
Description: Inhibition of MAPKAPK2 (unknown origin) at 100 nM relative to control

[44] = target: MAP kinase-activated protein kinase 5 (Homo sapiens) (UniProt Q8IW41); settings: dose 100.0 nM
Description: Inhibition of MAPKAPK5 (unknown origin) at 100 nM relative to control

[45] = target: Misshapen-like kinase 1 (Homo sapiens) (UniProt Q8N4C8); settings: dose 100.0 nM
Description: Inhibition of MINK1 (unknown origin) at 100 nM relative to control

[46] = target: Muscle, skeletal receptor tyrosine-protein kinase (Homo sapiens) (UniProt O15146); settings: dose 100.0 nM
Description: Inhibition of MUSK (unknown origin) at 100 nM relative to control

[47] = target: Protein kinase C beta type (Homo sapiens) (UniProt P05771); settings: dose 100.0 nM
Description: Inhibition of PKC-beta2 (unknown origin) at 100 nM relative to control

[48] = target: Protein kinase C delta type (Homo sapiens) (UniProt Q05655); settings: dose 100.0 nM
Description: Inhibition of PKC-delta (unknown origin) at 100 nM relative to control

[49] = target: Serine/threonine-protein kinase N2 (Homo sapiens) (UniProt Q16513); settings: dose 100.0 nM
Description: Inhibition of PRK2 (unknown origin) at 100 nM relative to control

[50] = target: Rho-associated protein kinase 1 (Homo sapiens) (UniProt Q13464); settings: dose 100.0 nM
Description: Inhibition of ROCK1 (unknown origin) at 100 nM relative to control

[51] = target: Ribosomal protein S6 kinase alpha-2 (Homo sapiens) (UniProt Q15349); settings: dose 100.0 nM
Description: Inhibition of RPS6KA2 (unknown origin) at 100 nM relative to control

[52] = target: Ribosomal protein S6 kinase alpha-6 (Homo sapiens) (UniProt Q9UK32); settings: dose 100.0 nM
Description: Inhibition of RPS6KA6 (unknown origin) at 100 nM relative to control

[53] = target: Non-receptor tyrosine-protein kinase TNK1 (Homo sapiens) (UniProt Q13470); settings: dose 100.0 nM
Description: Inhibition of TNK1 (unknown origin) at 100 nM relative to control

[54] = target: Vascular endothelial growth factor receptor 2 (Homo sapiens, UniProt P35968); settings: dose 100.0 nM
Description: Inhibition of VEGFR2 (unknown origin) at 100 nM relative to control

[55] = system: Epidermal growth factor receptor (Homo sapiens), P00533 [UNDEFINED MUTATION]; settings: dose 500.0 nM
Description: Inhibition of EGFR d747-752/P753S double mutant (unknown origin) at 500 nM relative to control

[56] = target: Tyrosine-protein kinase BTK (Homo sapiens, UniProt Q06187); test: Inhibition of BTK (unknown origin) by trFRET binding assay
Sequence of Tyrosine-protein kinase BTK (Q06187 whole entry): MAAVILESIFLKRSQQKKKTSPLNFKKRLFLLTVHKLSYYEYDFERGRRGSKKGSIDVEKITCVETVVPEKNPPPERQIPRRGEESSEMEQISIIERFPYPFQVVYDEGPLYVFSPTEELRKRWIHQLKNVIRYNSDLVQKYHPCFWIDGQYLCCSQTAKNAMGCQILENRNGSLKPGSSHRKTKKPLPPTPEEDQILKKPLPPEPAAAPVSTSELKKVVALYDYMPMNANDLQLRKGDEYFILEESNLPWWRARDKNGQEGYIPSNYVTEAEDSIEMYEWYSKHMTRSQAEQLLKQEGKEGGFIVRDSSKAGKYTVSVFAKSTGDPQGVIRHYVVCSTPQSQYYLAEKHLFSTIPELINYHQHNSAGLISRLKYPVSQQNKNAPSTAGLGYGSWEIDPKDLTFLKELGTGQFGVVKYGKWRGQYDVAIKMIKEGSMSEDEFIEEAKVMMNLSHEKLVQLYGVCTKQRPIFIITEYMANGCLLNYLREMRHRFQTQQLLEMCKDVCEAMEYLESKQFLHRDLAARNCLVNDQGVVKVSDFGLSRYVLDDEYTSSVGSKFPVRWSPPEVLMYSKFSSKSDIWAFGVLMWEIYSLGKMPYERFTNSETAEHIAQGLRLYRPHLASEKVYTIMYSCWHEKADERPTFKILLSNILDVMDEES

[57] = target: Fibroblast growth factor receptor 1 (Homo sapiens, UniProt P11362); test: Inhibition of FGFR1 (unknown origin) by trFRET binding assay
[58] = target: G protein-coupled receptor kinase 5 (Homo sapiens, UniProt P34947); test: Inhibition of GRK5 (unknown origin) by trFRET binding assay
[59] = target: T3, Tyrosine-protein kinase JAK3; test: Inhibition of JAK3 (unknown origin) by trFRET binding assay
[60] = target: Leukocyte tyrosine kinase receptor (Homo sapiens, UniProt P29376); test: Inhibition of LTK (unknown origin) by trFRET binding assay
[61] = target: Mitogen-activated protein kinase kinase kinase kinase 2 (Homo sapiens, UniProt Q12851); test: Inhibition of MAP4K2 (unknown origin) by trFRET binding assay
[62] = target: Proto-oncogene tyrosine-protein kinase receptor Ret (Homo sapiens, UniProt P07949); test: Inhibition of RET (unknown origin) by trFRET binding assay
[63] = target: Serine/threonine-protein kinase 33 (Homo sapiens, UniProt Q9BYT3); test: Inhibition of STK33 (unknown origin) by trFRET binding assay
Protein kinase C (PKC) = test: Inhibition of PKC (unknown origin); assay type: protein assay, Homo sapiens
[64] = target: Glycogen synthase kinase-3 beta (Homo sapiens, UniProt P49841); test: Inhibition of GSK3beta (unknown origin)

CC(C)(C)[C@@H](NC(=O)c1c[nH]c2ncc(C3CC3)nc12)C(=O)N1CC(C#N)C1
inhibition (Homo sapiens): 67%

CN(C)C(=O)C(C#N)=Cc1ccc(-c2nc3cnc4[nH]ccc4c3n2C2CCCCC2)o1 (mixture of isomers)
IC50 [1]: 660 nM
inhibition [2]: 65%
inhibition [3]: 100%
inhibition [4]: 100%
inhibition [5]: 135%
inhibition [6]: 135%
inhibition [7]: 62%
inhibition [8]: 133%
inhibition [9]: 100%
inhibition [10]: 11%
inhibition [11]: 142%
inhibition [12]: 53%
inhibition [13]: 100%
inhibition [14]: 100%
inhibition [15]: 100%
inhibition [16]: 100%
inhibition [17]: 100%
inhibition [18]: 100%
inhibition [19]: 100%
inhibition [20]: 145%
inhibition [21]: 148%
inhibition [22]: 100%
inhibition [23]: 141%
inhibition [24]: Active
inhibition [25]: Active
inhibition (CD4+ve Th [26]): Active
inhibition (CD4+ve Th [27]): inactive
inhibition (CD4+ve Th [28]): inactive
inhibition at 0.3 µM (cells [29]): 100%
inhibition at 0.3 µM (cells [30]): 100%

CN(C)C/C=C/C(=O)Nc1nc2cnc3[nH]ccc3c2n1C
IC50 [31]: 7 nM

CC1CCCCC1n1c(-c2ccc(C=C(C#N)C(=O)N(C)C)o2)nc2cnc3[nH]ccc3c21 (mixture of isomers)
inhibition [32]: 57%
inhibition [33]: 100%
inhibition [34]: 52%
inhibition [35]: 60%
inhibition [36]: 3%
inhibition [37]: 48%
inhibition [38]: 40%
inhibition [39]: 22%
inhibition [40]: 34%
inhibition [41]: 49%
inhibition [42]: 54%
inhibition [43]: 60%
inhibition [44]: 100%
inhibition [45]: 100%
inhibition [46]: 61%
inhibition [47]: 31%
inhibition [48]: 60%
inhibition [49]: 48%
inhibition [50]: 61%
inhibition [51]: 26%
inhibition [52]: 40%
inhibition [53]: 51%
inhibition [54]: 60%
inhibition [55]: 100%
inhibition [10]: 3%
inhibition (CD4+ve Th [26]): Active
inhibition (CD4+ve Th [27]): inactive
inhibition (CD4+ve Th [28]): inactive
inhibition at 0.3 µM (cells [29]): 100%
inhibition at 0.3 µM (cells [30]): 100%

C=CC(=O)Nc1nc2cnc3[nH]ccc3c2n1C
IC50 [31]: 3 nM
IC50 [56]: 1250 nM
IC50 [57]: 3100 nM
IC50 [58]: 9400 nM
IC50 [59]: 2 nM
IC50 [60]: 5600 nM
IC50 [61]: 7400 nM
IC50 [62]: 7800 nM
IC50 [63]: 7100 nM

Cn1c(=O)n([C@@H]2CC[C@@H](O)c3ccccc32)c2cc(-n3cnc4ccc(C#N)cc43)ccc21
IC50 [31]: 0.9 nM

CC(C)(O)C(=O)N1CCN(c2ccc(C(F)(F)F)c(C3=C(c4c[nH]c5ccccc45)C(=O)NC3=O)c2)CC1
IC50 (Protein kinase C (PKC)): < 1000 nM
IC50 [64]: < 1000 nM

Source: ChEMBL document CHEMBL5653628, “Selective JAK3 Inhibitors with a Covalent Reversible Binding Mode Targeting a New Induced Fit Binding Pocket” (Cell Chem Biol, 2016)
